Results reported in patent US20040142923A1, “Pyrrolidine sulfonamides” (priority 2003, published 2004).
pKi: −log10 of the molar value.

Target: human and rat GPR-14
Experiment: Radioligand binding ([125I] h-U-II)
Conditions: radioligand binding assay; HEK-293 cell membranes, 200 pM [125I] h-U-II; species (human or rat) not given
Experimental: HEK-293 cell membranes containing stable cloned human and rat GPR-14 (20 ug/assay) were incubated with 200 pM [125I] h-U-II (200 Ci/mmol^−1 in the presence of increasing concentrations of test compounds in DMSO (0.1 nM to 10 uM), in a final incubation volume of 200 ul (20 mM Tris-HCl, 5 mM MgCl2). Incubation was done for 30 minutes at room temperature followed by filtration GF/B filters with Brandel cell harvester. ^125I labeled U-II binding was quantitated by gamma counting. Nonspecific binding was defined by ^125I U-II binding in the presence of 100 nM of unlabeled human U-II. Analysis of the data was performed by nonlinear least square fitting.

Q: With `O=C(NC1CCN(S(=O)(=O)c2cc(Cl)c(OC3CCNCC3)c(Cl)c2)C1)c1ccc(Cl)c(Cl)c1` (stereo not shown) [Example 5] as the compound, how does the pKi read?
A: Its pKi is 5.82.
